What was measured:
[1] = for thermal conductivity / thermal diffusivity: 100 kPa; for thermal diffusivity: Laser flash apparatus
[2] = molar heat capacity at constant pressure; details: 100 kPa, DSC

[Fe] [iron]
Details | mass density [kg/m3]
[1], 293 K, 101.33 kPa, Crystal 4 | 7849

Details | molar heat capacity at constant pressure, [2] [J/K/mol] | thermal conductivity, [1] [W/m/K] | thermal diffusivity, [1] [m2/s]
293.15 K, Crystal 4 | 24.96 | 82.5 | 2.22e-05
373.15 K, Crystal 4 | 27.53 | 73.4 | 1.92e-05
473.15 K, Crystal 4 | 29.54 | 65.5 | 1.58e-05
573.15 K, Crystal 4 | 31.38 | 58.2 | 1.31e-05
673.15 K, Crystal 4 | 34.23 | 52 | 1.08e-05
773.15 K, Crystal 4 | 37.36 | 46.7 | 8.91e-06
873.15 K, Crystal 4 | 41.66 | 41.1 | 7.06e-06
973.15 K, Crystal 4 | 48.64 | 36.2 | 5.18e-06
1073.2 K, Crystal 3 | 52.72 | 31.5 | 4.49e-06
1173.2 K, Crystal 3 | 42.22 | 30 | 5.27e-06
1273.2 K, Crystal 2 | 33.62 | 28.4 | 6.33e-06
